In general, pEC50 refers to −log10 of the EC50, conventionally taken in molar units.

Each structure is given as a SMILES string. pEC50: −log10 of the molar value. Where “and” joins values, the source holds several entries; their conditions need not be identical. Equal entries are not always repeated. Entries after “also recorded” stand apart in the source; their conditions may differ.

Data set [1] concerns extrinsic and intrinsic blood coagulation factors. The experiment in a line: Example 2: activities of extrinsic and intrinsic blood coagulation factors in rat plasma (factor deficient plasma method). It is filed as in vivo. The following applies: 300 mg/kg/day oral, mean, % of intact rat plasma.
For data set [2] the following is noted: disclosed in WO01/00603; cited from earlier work.
Data set [3] deals with male Sprague-Dawley rats. The data set can be described thus: Example 1: PT, APTT and Fbg in rat plasma after 7-day repeated gavage administration. The following applies: 300 mg/kg/day gavage, 7 days; for PT and APTT compared with Controls / APTT / Fbg / PT: rat. In kind it is in vivo.
The subject of data set [4] is male Sprague-Dawley rats. The data set can be described thus: Example 2: PT, APTT and Fbg in rat plasma after 1, 2 and 3 administrations. It is filed as in vivo. Particulars: 300 mg/kg/day oral, blood on next day, mean.
Data set [5] concerns male Sprague-Dawley rats. The data set can be described thus: Example 4: PT, APTT and Fbg in rats given Compound (a) with or without vitamin K1 for 7 days. In kind it is in vivo. Particulars: rat; for APTT / Fbg / PT: Compound (a) only 200 mg/kg oral. As to the method:
4-week-old male Sprague-Dawley rats (Crl:CD(SD), SPF) were purchased from CHARLES RIVER LABORATORIES JAPAN, INC., Hino Breeding Center. […] 0.005% (v/v) solution of vitamin K1 (TOYO Pharma Co., Ltd., 30 mg/3 mL) was prepared just before use with a vehicle of water for injection (Otsuka Pharmaceutical Factory, Inc.). […] Dosing volume was calculated based on body weight, measured on that day. […] The rats were dissected after collecting the blood and a visual inspection of skeletal muscle (soleus muscle) was carried out. After that, the muscle was fixed with 10% neutral buffered formalin, paraffin section was routinely processed, and a histological examination was carried out with an optical microscope after hematoxylin and eosin staining.

The subject of data set [6] is skeletal muscle (soleus muscle). The data set can be described thus: Example 4: histological examination of skeletal muscle (soleus muscle). In kind it is in vivo. Further details: key: (±): slight; (+): mild. Particulars: rat, Compound (a) only 200 mg/kg oral, 7 days; individual animal.
The subject of data set [7] is male Sprague-Dawley rats. The data set can be described thus: Example 3: PT, APTT and Fbg in rats given Compound (a) and/or vitamin K1 for 3 days. It is filed as in vivo. Particulars: rat; for APTT / Fbg / PT: mean. As to the method: (§1) 4-week-old male Sprague-Dawley rats (Crj:CD(SD)IGS, SPF) were purchased from CHARLES RIVER LABORATORIES JAPAN, INC., Hino Breeding Center. […] Administeration was started at. […] Subcutaneous administeration was a 3-day administeration (3 or 200 μg/kg/day) into the back skin with injection syringe attached with a subcutaneous 1⁄4 needle at 1 mL/kg/day. Oral administeration was a 3-day repeated gavage administeration (200 μg/kg/day) with gastric tube for rats at. 4 mL/kg/day. Dosing volume was calculated based on body weight measured on that day. […] Activities of Vitamin K-dependent coagulation factors ([…]) were also) measured with the same blood plasma samples according to Example 2.

Data set [8] deals with Vitamin K-dependent coagulation factors (F-II, F-VII, F-X, F-IX). The data set can be described thus: Example 3: activities of vitamin K-dependent coagulation factors in rats given Compound (a) and/or vitamin K1. It is filed as in vivo. The following applies: rat, 3 days; for F-II activity / F-IX activity / F-VII activity / F-X activity: mean. As to the method:
as §1

The target of a further data set is human PPARδ (hPPARδ) (Homo sapiens, UniProt Q03181). The experiment in a line: cell-based.
human PPARδ (hPPARδ), sequence (Q03181 139-441 limits assumed): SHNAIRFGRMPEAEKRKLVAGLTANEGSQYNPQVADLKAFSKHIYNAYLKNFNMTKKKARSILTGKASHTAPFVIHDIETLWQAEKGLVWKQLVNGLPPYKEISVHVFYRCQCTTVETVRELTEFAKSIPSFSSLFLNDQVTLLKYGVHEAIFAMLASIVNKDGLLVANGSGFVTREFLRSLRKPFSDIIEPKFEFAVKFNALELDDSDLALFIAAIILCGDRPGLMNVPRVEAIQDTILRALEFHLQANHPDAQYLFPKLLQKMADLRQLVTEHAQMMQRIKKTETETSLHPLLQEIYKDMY
Where [9] appears, read: Compound (a) only 300 mg/kg oral.
Setting [10] is: Compound (a) only 300 mg/kg/day.
[11] abbreviates: vitamin K1 only 200 μg/kg subcutaneous.
The mark [12] stands for this setting: individual animal, 300 mg/kg/day.

With `Cc1cc(SCc2sc(-c3ccc(C(F)(F)F)cc3)nc2C)ccc1OCC(=O)O` [Compound (a), GW501516], the F-II activity in [1] (1 dose) is 60.8%; in data set [1] (2 doses) it was 24.2%; in data set [1] (3 doses), 15.1%; in [8] (setting [9]), 13.8%. Besides, the F-IX activity in [1] (1 dose) stood at 62.5%; in data set [1] (2 doses), 34.2%; in data set [1] (3 doses) it was 24.6%; in data set [8] (setting [9]), 27.7%. The F-V activity worked out at 93.3% in [1] (1 dose), 90.6% in [1] (2 doses) and 93.0% in data set [1] (3 doses). Also, the F-VII activity in data set [1] (1 dose) was found to be 57.7%; in [1] (2 doses), 17.1%; in data set [1] (3 doses) it was 8.8%; in data set [8] (setting [9]), 6.3%. Further, the values for the F-VIII activity in [1] (1 dose), in [1] (2 doses) and in data set [1] (3 doses) were 99.2%, 94.2% and 101.2%, respectively. The F-X activity in [1] (1 dose) was 68.3%; in data set [1] (2 doses), 44.7%; in [1] (3 doses), 32.4%; in data set [8] (setting [9]), 29.9%. The F-XI activity in data set [1] (1 dose) is on record as 84.0%; in data set [1] (2 doses), 76.0%; in data set [1] (3 doses) it was 71.0%. For the same compound, the F-XII activity is listed as 79.4% in data set [1] (1 dose), 80.7% in data set [1] (2 doses) and 78.6% in data set [1] (3 doses). Also, in data set [2], the “elevation of HDL” value was “high elevation of HDL; also recorded: HDL-raising”. This compound returned a rats died in the data set with male Sprague-Dawley rats [3] (4 animals in the group) of 3. The “PT and APTT compared with Controls” value in the data set on male Sprague-Dawley rats [3] is listed as “prolonged”. The APTT in the data set on male Sprague-Dawley rats [3] (blood on next day, group mean) is 46.4 s; in the data set on male Sprague-Dawley rats [3] (individual animal), 46.4 s; in the data set on male Sprague-Dawley rats [4] (1 dose), 19.9 s; in the data set with male Sprague-Dawley rats [4] (2 doses), 25.5 s; in the data set on male Sprague-Dawley rats [4] (3 doses) it was 30.7 s; in the data set with male Sprague-Dawley rats [5] (individual animal), 34.1 s and 67.1 s. Further, the APTT in the data set on male Sprague-Dawley rats [5] (mean) is 50.6 s; in the data set on male Sprague-Dawley rats [7] (setting [9]) it was 30.2 s. Further, the Fbg is 173.3 mg/dL in the data set on male Sprague-Dawley rats [3] (blood on next day, group mean); 173.3 mg/dL in the data set on male Sprague-Dawley rats [3] (individual animal); 200.1 mg/dL in the data set with male Sprague-Dawley rats [4] (1 dose); 198.8 mg/dL in the data set with male Sprague-Dawley rats [4] (2 doses); 175.7 mg/dL in the data set on male Sprague-Dawley rats [4] (3 doses); 199.7 mg/dL and 227.2 mg/dL with male Sprague-Dawley rats [5] (individual animal). Further, the Fbg is given as 213.5 mg/dL in the data set on male Sprague-Dawley rats [5] (mean) and 177.8 mg/dL with male Sprague-Dawley rats [7] (setting [9]). For the same compound, the PT was 26.9 s with male Sprague-Dawley rats [3] (blood on next day, group mean); 26.9 s with male Sprague-Dawley rats [3] (individual animal); 14.6 s with male Sprague-Dawley rats [4] (1 dose); 18.3 s in the data set with male Sprague-Dawley rats [4] (2 doses); 21.7 s in the data set with male Sprague-Dawley rats [4] (3 doses); 19.1 s and 35.5 s in the data set with male Sprague-Dawley rats [5] (individual animal). Besides, the PT in the data set on male Sprague-Dawley rats [5] (mean) was found to be 27.3 s; with male Sprague-Dawley rats [7] (setting [9]), 23.0 s. Besides, the “prothrombin time and activated partial thromboplastin time” value in the data set on male Sprague-Dawley rats [5] (Compound (a) only 200 mg/kg/day) is reported as “prolonged”. Also, the “Histological examination Soleus muscle: Necrosis” value in data set [6] is recorded as “Necrosis (+); also recorded: Necrosis (±)”. In the data set on male Sprague-Dawley rats [7] (setting [10]), the “PT and APTT compared with the intact group” value was “more prolonged”. The “activities of vitamin K-dependent coagulation factors compared with the intact group” value in data set [8] (setting [10]) is listed as “lowered”.

In the data set with male Sprague-Dawley rats [7] (setting [11]), `CC1=C(C/C=C(\C)CCC[C@H](C)CCC[C@H](C)CCCC(C)C)C(=O)c2ccccc2C1=O` [Vitamin K1, phylloquinone] returned an APTT of 15.9 s, a Fbg of 200.3 mg/dL and a PT of 15.3 s. Further, the “each item (PT, APTT, Fbg, factor activities) compared with the intact group” value with male Sprague-Dawley rats [7] (vitamin K1 only 200 μg/kg/day subcutaneous) is on record as “no significant differences”. Further, in [8] (setting [11]), the F-II activity stood at 92.7%, the F-IX activity worked out at 100.2%, the F-VII activity stood at 70.1% and the F-X activity stood at 74.3%.

As to `CCO/N=C/c1c(CSc2ccc(C(C)CC(=O)O)cc2OC)noc1-c1ccc(C(F)(F)F)cc1` (centres unmarked) [Compound (b)], the pEC50 on human PPARδ (hPPARδ) was 8.89. The “PT and APTT compared with Controls” value in the data set on male Sprague-Dawley rats [3] is “prolonged”. Further, in the data set on male Sprague-Dawley rats [3] (blood on next day, group mean), the APTT turned out to be 31.3 s, the Fbg came to 204.5 mg/dL and the PT turned out to be 18.6 s. Moreover, in the data set on male Sprague-Dawley rats [3] (setting [12]), the APTT was 29.1 s and 28.2 s and 30.7 s and 37.3 s; the Fbg is 217.9 mg/dL (2×) and 208.9 mg/dL and 173.3 mg/dL; the PT is 17.4 s and 18.6 s and 16.4 s and 22.0 s.

At human PPARδ (hPPARδ), `Cc1c(CSc2ccc([C@@H](C)CC(=O)O)cc2)noc1-c1ccc(C(F)(F)F)cc1` [Compound (c)] gave a pEC50 of 7.72. Moreover, in the data set on male Sprague-Dawley rats [3], the “PT and APTT compared with Controls” value was “prolonged”. In the data set on male Sprague-Dawley rats [3] (blood on next day, group mean), this compound yielded an APTT of 43.9 s, a Fbg of 204.8 mg/dL and a PT of 24.5 s. For the same compound, in the data set on male Sprague-Dawley rats [3] (setting [12]), the APTT was 21.9 s and 41.8 s and 68.2 s and 43.8 s; the Fbg is 201.8 mg/dL and 179.6 mg/dL and 193.8 mg/dL and 243.9 mg/dL; the PT was 13.6 s and 22.3 s and 35.9 s and 26.0 s.

Source of the values: US20110028499A1, “PHARMACEUTICAL COMBINATION COMPRISING VITAMIN K” (SHIONOGI & CO., LTD., priority 2005, published 2011).
